The test concerns the target T1, human μ-opiate receptor (Homo sapiens, UniProt P35372).
T1 construct: purchased Nen company, Zaventem, Belgium RB-HOM; host or cells: CHO-K1 cells (membrane preparation)
Briefly: Affinity for the human μ-opiate receptor ([3H]-naloxone displacement, SPA, CHO-K1 membrane preparation). The following applies: test substance 1 μmole/l, displacement of 1 nmole/l [3H]-naloxone, percentage inhibition of the specific binding; for inhibition at 1 µM: read-out: μ-opioid receptor, % inhibition [1 μM]. The method, then: Method for Determining the Affinity for the Human μ-Opiate Receptor
The receptor affinity for the human μ-opiate receptor is determined in a homogeneous batch in microtiter plates. For this purpose dilution series of the substances to be tested are incubated for 90 minutes at room temperature with a receptor membrane preparation (15-40 μg protein/250 μl incubation batch) of CHO-K1 cells, which express the human μ-opiate receptor (RB-HOM receptor membrane preparation from the Nen company, Zaventem, Belgium), in the presence of 1 nmole/l of the radioactive ligand [^3H]-naloxone (NET719, Nen company, Zaventem, Belgium) and 1 mg WGA-SPA beads (wheat germ agglutinin SPA beads from Amersham/Pharmacia, Freiburg, Germany) in a total volume of 250 μl. 50 mmole/l of Tris-HCl supplemented with 0.05% sodium azide and with 0.06% bovine serum albumin is used as incubation buffer. In order to determine the non-specific binding, 25 μmole/l of naloxone is additionally added. After the end of the 90 minutes' incubation time the microtiter plates are centrifuged for 20 minutes at 1000 g and the radioactivity is measured in a beta counter (Microbeta-Trilux, PerkinElmer Wallac, Freiburg, Germany). The percentage displacement of the radioactive ligand from its binding to the human μ-opiate receptor at a concentration of the test substances of 1 μmole/l is determined and is given as percentage inhibition of the specific binding.

The source of these data is US7608619B2, “Substituted oxazole compounds with analgesic activity” (Gruenenthal GmbH, priority 2005, dated 2009).

By inhibition is commonly meant the relative decrease from the control value, in per cent.

T1 sequence (P35372 whole entry): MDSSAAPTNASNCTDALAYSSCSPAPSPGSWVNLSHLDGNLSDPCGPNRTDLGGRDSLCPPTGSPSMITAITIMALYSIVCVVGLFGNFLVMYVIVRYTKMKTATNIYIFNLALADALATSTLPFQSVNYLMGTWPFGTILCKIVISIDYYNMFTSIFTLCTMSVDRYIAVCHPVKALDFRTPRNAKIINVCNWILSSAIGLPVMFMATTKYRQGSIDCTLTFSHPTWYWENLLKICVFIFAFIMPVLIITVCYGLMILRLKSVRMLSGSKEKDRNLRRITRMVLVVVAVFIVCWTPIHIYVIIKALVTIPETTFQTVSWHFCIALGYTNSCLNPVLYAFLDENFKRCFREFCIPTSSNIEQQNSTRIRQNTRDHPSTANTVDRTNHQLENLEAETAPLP

As for `CC1CC(C)CN(c2oc(C(C3CCC(C(c4ccc(Cl)cc4)N(C)C)CC3)N(C)c3ccccc3)nc2Cc2ccccc2)C1` (centres unmarked) [compound 42, ([4-benzyl-5-(3,5-dimethylpiperidin-1-yl)-oxazol-2-yl]-{4-[(4-chlorophenyl)-dimethylaminomethyl]-cyclohexyl}-methyl)-methylphenylamine], the inhibition at 1 µM amounted to 79%.
Consider `CN(CCc1ccccc1)c1oc(C(C2CCC(C(c3ccc(Cl)cc3)N(C)C)CC2)N(C)c2ccccc2)nc1Cc1ccccc1` (centres unmarked) [compound 43, {4-benzyl-2-[{4-[(4-chlorophenyl)-dimethylaminomethyl]-cyclohexyl}-(methylphenylamine)-methyl]-oxazol-5-yl}-methylphenethylamine], for which the “μ-opioid receptor, % inhibition [1 μM]” value turned out to be 72%.
Regarding `CCN(CC)c1oc(C(C2CCC(C(c3ccc(Cl)cc3)N(C)C)CC2)N2CCN(Cc3ccccc3)CC2)nc1Cc1ccccc1` (centres unmarked) [compound 44, [4-benzyl-2-((4-benzylpiperazin-1-yl)-{4-[(4-chlorophenyl)-dimethylaminomethyl]-cyclohexyl}-methyl)-oxazol-5-yl]-diethylamine], the inhibition at 1 µM stood at 67%.
As to `CC1CC(C)CN(c2oc(C(C3CCC(C(c4cccs4)N(C)C)CC3)N3CCCCC3)nc2Cc2ccccc2)C1` (centres unmarked) [compound 45, [(4-{[4-benzyl-5-(3,5-dimethylpiperidin-1-yl)-oxazol-2-yl]-piperidin-1-yl-methyl}-cyclohexyl)-thiophen-2-yl-methyl]-dimethylamine], the inhibition at 1 µM was 71%.
Same read-out and setting: the result for `CN(CCc1ccccc1)c1oc(C(C2CCC(C(c3cccs3)N(C)C)CC2)N2CCCCC2)nc1Cc1ccccc1` (centres unmarked) [compound 46, (4-benzyl-2-{[4-(dimethylaminothiophen-2-yl-methyl)-cyclohexyl]-piperidin-1-yl-methyl}-oxazol-5-yl)-methylphenethylamine] reads 80%; that for `CCN(CC)c1oc(C(C2CCC(C(c3cccs3)N(C)C)CC2)N2CCCCC2)nc1Cc1ccccc1` (centres unmarked) [compound 47, (4-benzyl-2-{[4-(dimethylamino-thiophen-2-yl-methyl)-cyclohexyl]-piperidin-1-yl-methyl}-oxazol-5-yl)-diethylamine], 73%.
Take `CN(C)C(c1cccs1)C1CCC(C(c2nc(Cc3ccccc3)c(N3CCSCC3)o2)N2CCCCC2)CC1` (centres unmarked) [compound 48, ({4-[(4-benzyl-5-thiomorpholin-4-yl-oxazol-2-yl)-piperidin-1-yl-methyl]-cyclohexyl}-thiophen-2-yl-methyl)-dimethylamine]: the inhibition at 1 µM stood at 60%.
Consider `CCN(CC)C(c1nc(Cc2ccccc2)c(N(C)CCc2ccccc2)o1)C1CCC(C(c2cccs2)N(C)C)CC1` (centres unmarked) [compound 49, (4-benzyl-2-{diethylamino-[4-(dimethylamino-thiophen-2-yl-methyl)-cyclohexyl]-methyl}-oxazol-5-yl)-methylphenethylamine], for which the inhibition at 1 µM came out at 90%.
Still for that read-out and setting: the result for `CCN(CC)c1oc(C(C2CCC(C(c3cccs3)N(C)C)CC2)N(CC)CC)nc1Cc1ccccc1` (centres unmarked) [compound 50, (4-benzyl-2-{diethylamino-[4-(dimethylaminothiophen-2-yl-methyl)-cyclohexyl]-methyl}-oxazol-5-yl)-diethylamine] reads 83%; that for `CCN(CC)C(c1nc(Cc2ccccc2)c(N2CCCC(C)C2)o1)C1CCC(C(c2cccs2)N(C)C)CC1` (centres unmarked) [compound 51, {[4-benzyl-5-(3-methylpiperidin-1-yl)-oxazol-2-yl]-[4-(dimethylamino-thiophen-2-yl-methyl)-cyclohexyl]-methyl}-diethylamine], 100%.
Regarding `CN(C)C(c1cccs1)C1CCC(C(c2nc(Cc3ccccc3)c(N3CCSCC3)o2)N(C)c2ccccc2)CC1` (centres unmarked) [compound 52, {(4-benzyl-5-thiomorpholin-4-yl-oxazol-2-yl)-[4-(dimethylaminothiophen-2-yl-methyl)-cyclohexyl]-methyl}-methylphenylamine], the inhibition at 1 µM was determined as 92%.
